Source: PubChem BioAssay (NCI)
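Where inhibition never reached the appropriate level, the endpoint shown equals the highest concentration tested. Otherwise, values were interpolated linearly from a five-concentration, 48-hour dose response in 96-well plates. GI50 = concentration required for 50% inhibition of growth. TGI denotes the concentration required for complete inhibition of growth.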

What was measured:
Assay in all cases: DTP human tumour cell line panel, 48 h
RPMI-8226 leukemia = system: RPMI-8226 leukemia
MDA-MB-231 breast = system: MDA-MB-231 breast
A498 renal = system: A498 renal
OVCAR-8 ovarian = system: OVCAR-8 ovarian
OVCAR-3 ovarian = system: OVCAR-3 ovarian
786-0 renal = system: 786-0 renal
DU-145 prostate = system: DU-145 prostate
NCI-H460 lung = system: NCI-H460 lung
U251 CNS = system: U251 CNS
NCI-H226 lung = system: NCI-H226 lung
KM12 colon = system: KM12 colon
HOP-92 NSCLC = system: HOP-92 NSCLC
UO-31 renal = system: UO-31 renal
SR leukemia = system: SR leukemia
K-562 leukemia = system: K-562 leukemia
NCI-H522 lung = system: NCI-H522 lung
IGROV1 ovarian = system: IGROV1 ovarian
SNB-19 CNS = system: SNB-19 CNS
MOLT-4 leukemia = system: MOLT-4 leukemia
ACHN renal = system: ACHN renal
M14 melanoma = system: M14 melanoma
TK-10 renal = system: TK-10 renal
MCF7 breast = system: MCF7 breast
SK-MEL-5 melanoma = system: SK-MEL-5 melanoma
SK-MEL-2 melanoma = system: SK-MEL-2 melanoma

## CS(=O)(=O)c1ccc2c(c1)c1c(n2S(=O)(=O)c2ccc(Cl)cc2)CCCC1
RPMI-8226 leukemia
  GI50: 3.72 µM
  TGI: > 100 µM
MDA-MB-231 breast
  GI50: 4.25 µM
  TGI: > 100 µM
A498 renal
  GI50: > 100 µM
  TGI: > 100 µM
OVCAR-8 ovarian
  GI50: 4.11 µM
  TGI: > 100 µM
OVCAR-3 ovarian
  GI50: 3.56 µM
  TGI: > 100 µM
786-0 renal
  GI50: 4.73 µM
  TGI: > 100 µM
DU-145 prostate
  GI50: 4.3 µM
  TGI: > 100 µM
NCI-H460 lung
  GI50: 3.5 µM
  TGI: > 100 µM
U251 CNS
  GI50: 4.68 µM
  TGI: > 100 µM
NCI-H226 lung
  GI50: 3.22 µM
  TGI: > 100 µM
KM12 colon
  GI50: 3.16 µM
  TGI: > 100 µM
HOP-92 NSCLC
  GI50: 3.04 µM
  TGI: > 100 µM
UO-31 renal
  GI50: 3.82 µM
  TGI: > 100 µM
SR leukemia
  GI50: 0.594 µM
  TGI: > 100 µM
K-562 leukemia
  GI50: 0.706 µM
  TGI: > 100 µM
NCI-H522 lung
  GI50: 1.08 µM
  TGI: 3.39 µM
IGROV1 ovarian
  GI50: 5.24 µM
  TGI: > 100 µM
SNB-19 CNS
  GI50: 5.54 µM
  TGI: > 100 µM
MOLT-4 leukemia
  GI50: 4.49 µM
  TGI: > 100 µM
ACHN renal
  GI50: 7.56 µM
  TGI: > 100 µM
M14 melanoma
  GI50: 3.69 µM
  TGI: > 100 µM
TK-10 renal
  GI50: > 100 µM
  TGI: > 100 µM
MCF7 breast
  GI50: 2.61 µM
  TGI: > 100 µM
SK-MEL-5 melanoma
  GI50: 3.92 µM
  TGI: > 100 µM
SK-MEL-2 melanoma
  GI50: 2.15 µM
  TGI: 7.44 µM
